{"source": "patent US12433853B2", "about": "“Rationally designed lawsone derivatives as antimicrobials against multidrug-resistant Staphylococcus aureus” (KENT STATE UNIVERSITY, priority 2019, dated 2025)", "key": {"[1]": {"system": "MRSA", "test": "Non-lethal systemic infection model, i.p. treatment", "type": "in vivo, mice (C57BL/6)", "settings": "single dose 15 mg/kg i.p. at day 1 post-infection, CFU at day 2; p<0.05", "from_the_text": "FIG. 8 is a chart showing the effect of the treatment of 6c (via i.p injection, […]) on the bacterial burden in lung (b), spleen (c), kidney (d), liver (e), and peritoneal (f) tissues of mice (C57BL/6 mice, male, 8-12 weeks old) infected by MRSA (mean±s·d, n=8 mice per group). The CFU counts from homogenized tissue collected from each mouse was run in duplicates. *: p<0.05, **: p<0.01, and ***: p<0.001.\n(§1) To validate the in vivo antibacterial efficacy, we conducted the studies of treating the infections of local wound infection as well as non-lethal systemic infection induced by MRSA. For local infection, a full-thickness, circular wound was generated on the dorsal surface of each mouse (C57BL/6) using a 6-mm sterile biopsy punch after the mouse was anesthetized, followed by inoculating with 1×10^6 CFU MRSA (ATCC BAA-44) in the wounded skin at day 0 and then a defined amount of 6c or vancomycin (80 μg in 40 μL sterile saline per wound) was topically applied once to the wounds of mice at day 1 post-infection. The CFU number of viable bacteria in the wound was quantified at day 2 post-infection. […] The CFU number of viable bacteria was counted at day 2 post-infection from major organs including lung, kidney, spleen, liver, and peritoneal tissues. […]"}, "[2]": {"system": "MSSA (ATCC 29213 and ATCC 6538)", "test": "MIC by broth microdilution (CLSI) against MSSA", "type": "cell-based, Staphylococcus aureus", "settings": "two strains of MSSA", "experimental": "(§2) The MICs were determined by the broth microdilution method by following Clinical and Laboratory Standards Institute (CLSI) guidelines\n(§3) Spectroscopic characterization and X-ray structural determination unequivocally confirmed the identities of all the five new compositions of matter, that is compounds denoted as 6a through 6e."}, "[3]": {"system": "vancomycin-intermediate and daptomycin non-susceptible strain of MRSA (ATCC 700699)", "test": "MIC by broth microdilution (CLSI) against vancomycin-intermediate, daptomycin non-susceptible MRSA", "type": "cell-based", "settings": "Staphylococcus aureus, ATCC 700699 / MRSA / VISA", "experimental": "as §2, §3"}, "[4]": {"system": "MRSA (ATCC BAA-44)", "test": "Checkerboard assay of 6c with oxacillin", "type": "cell-based, Staphylococcus aureus", "settings": "6c combined with oxacillin", "experimental": "MIC of oxacillin in the presence of 0.6 μg/mL of 6c. ^bMIC of 6c in the presence of 4 μg/mL of oxacillin. The MICs were determined by the broth microdilution method by following Clinical and Laboratory Standards Institute (CLSI) guidelines.\nThe checkerboard assay was performed in a 96-well plate using the established method. Specifically, the antibiotic oxacillin was 2-fold serially diluted along the row-axis and 6c was 2-fold serially diluted along the column-axis to create a matrix in which each well consists of a combination of both at different concentrations. Each well was inoculated with MRSA (ATCC BAA-44) to yield approximately 5×10^5 CFU/mL in a 100-μL final volume, incubated for 20 h at 37° C. and examined for visibility to determine the MIC. Dividing the MIC of 6c in the presence of antibiotic by the MIC of 6c alone was used to calculate the fractional inhibitory concentration (FIC) of 6c. Similarly, dividing the MIC of antibiotic in the presence of 6c by the MIC of the antibiotic alone was used to calculate the fractional inhibitory concentration (FIC) of the antibiotic. The FIC index was calculated by the summation of both FIC values. The FIC index was interpreted as synergistic, additive, or antagonistic for values of x≤0.5, 0.5<x<4, or ≥4, respectively."}, "[5]": {"system": "biofilm formed by MRSA (ATCC BAA-44)", "test": "Biofilm inhibition assay", "type": "cell-based, Staphylococcus aureus", "settings": "24 h", "experimental": "FIG. 6 is a chart showing the effect of 6c on the inhibition of biofilm formed by MRSA (ATCC BAA-44). Percentage of viable bacteria in the biofilm formed by MRSA in response to the treatment of Lawsone-derivatives (6a, 6b, 6c, 6d, and 6e) at varying concentrations (0-30 μM) (mean±s·d, n=3 independent experiments);\nBy observing the antibacterial efficacy of 6c against planktonic phase of MRSA, we next examined whether 6c could be effective against biofilm phase of MRSA. For this, the biofilm inhibition assay was performed using the established procedure. […] For the quantification of biofilm mass, the solutions in the plate with biofilm were replaced with a 100 μL solution containing 0.5% of crystal violet and incubated for 30 min at room temperature in the dark. […] The absorbance of the biofilm was measured at 595 nm using a microplate reader and the results were expressed as percentage changes with respect to the control (without compounds). For the quantification of the number of viable bacteria in the biofilm, the biofilms were gently destroyed and plated on TSA after serial dilutions of each suspension. The number of viable bacteria in the sample was obtained using agar plate counting method as described above and results were expressed as percentage changes with respect to the control."}, "[6]": {"system": "MRSA (ATCC BAA-44)", "test": "Local wound infection model, topical treatment", "type": "in vivo, mice (C57BL/6)", "settings": "single topical dose 80 μg per wound at day 1 post-infection, CFU at day 2", "experimental": "FIG. 7 is a chart showing the effect of the treatment of 6c or vancomycin (via topical treatment, single dose at 80 μg per wound) on the bacterial burden in wounds of mice (C57BL/6 mice, male, 8-12 weeks old) infected by MRSA at day 2 post-wounding (mean±s·d, n=3 mice per group). The CFU counts from homogenized tissue collected from each mouse was run in duplicates. *: p<0.05 vs control;\nas §1"}, "[7]": {"system": "MRSA (ATCC BAA-44)", "test": "Sequential passaging drug resistance development study in MRSA", "type": "cell-based, Staphylococcus aureus", "settings": "for MIC: Staphylococcus aureus, read-out: initial MIC", "from_the_text": "FIG. 4 is a chart showing the drug resistance development of 6c in comparison with vancomycin and ofloxacin in MRSA (ATCC BAA-44);\n(§4) Typical clinical antibiotics can readily produce genetic mutants when used to treat the same bacterial over and over again, which is the major cause of antibiotic drug resistance in many pathogenic bacteria these days and of emergence of superbugs. To test if 6c can develop drug resistance in either MSSA (ATCC 29213) or MRSA (ATCC BAA-44), we performed sequential passaging studies with 6c. Briefly, the MIC values for S. aureus strains to be tested were determined first. Then, cells grown in the initial MIC dose of the compound or antibiotics from the previous passage were once again harvested after 24-h incubation period and assayed for a new MIC. The process was repeated for 56 passages against MRSA (ATCC BAA-44)."}, "[8]": {"system": "MRSA (ATCC BAA-44 and ATCC BAA-1717)", "test": "microbe, parasite or virus in culture", "type": "cell-based, Staphylococcus aureus", "experimental": "as §2, §3"}, "[9]": {"system": "MRSA^vanR", "test": "MIC against vancomycin-resistant mutant MRSA from day 56 passage (cross-resistance)", "type": "cell-based", "settings": "Staphylococcus aureus", "experimental": "as §4"}, "[10]": {"system": "MRSA^oflR", "test": "MIC against ofloxacin-resistant mutant MRSA from day 56 passage (cross-resistance)", "type": "cell-based", "settings": "Staphylococcus aureus", "experimental": "as §4"}, "[11]": {"system": "MSSA (ATCC 29213)", "test": "Sequential passaging drug resistance development study in MSSA", "type": "cell-based, Staphylococcus aureus", "settings": "MSSA ATCC 29213, sequential passaging, vs vancomycin and ciprofloxacin", "from_the_text": "FIG. 5 is a chart showing the drug resistance development of 6c in comparison with vancomycin and ciprofloxacin in MSSA (ATCC SA 29213);\nas §4"}, "[12]": {"settings": "at 56 passages (end of measurements)"}}, "data": [{"compound": "CCCCc1ccc(CC2=C(O)C(=O)c3ccccc3C2=O)cc1", "note": "[6c, 2-[(4-butylphenyl)methyl]-3-hydroxy-[1,4]naphthoquinone]", "values": [{"measurement": "bacterial burdens in kidney, liver, and peritoneal tissues vs vehicle control", "setting": "[1]", "value": "significantly reduced"}, {"measurement": "antimicrobial activity (MIC) compared with ofloxacin and ciprofloxacin", "setting": "[2]", "value": "comparable"}, {"measurement": "MIC", "setting": "[3]", "value": "1.25 to 2.5", "unit": "µg/mL"}, {"measurement": "FIC index interpretation", "setting": "[4]", "value": "synergistic (x≤0.5)"}, {"measurement": "FIC", "setting": "[4]; MRSA ATCC BAA-44, 20 h", "value": 0.31}, {"measurement": "suppression of biofilm formation", "setting": "[5]; dose of 1×MIC (5 μM or 1.5 μg/mL)", "value": 40, "unit": "%"}, {"measurement": "suppression of biofilm formation", "setting": "[5]; dose of 3×MIC (15 μM or 4.5 μg/mL)", "value": 90, "unit": "%"}, {"measurement": "reduction of MRSA numbers (CFU) in the wound vs control", "setting": "[6]", "value": 60, "unit": "%"}, {"measurement": "MIC", "setting": "[7]", "value": 1.25, "unit": "µg/mL"}, {"measurement": "increase of MIC", "setting": "[7]; [12]", "value": 4, "unit": "fold"}, {"measurement": "change of MIC", "setting": "[7]; up to 33 passages", "value": "largely unchanged"}, {"measurement": "MIC", "setting": "[8]; Staphylococcus aureus", "value": "1.25 to 2.5", "unit": "µg/mL"}, {"measurement": "MIC", "setting": "[9]", "value": 5, "unit": "µg/mL"}, {"measurement": "MIC", "setting": "[10]", "value": 1.25, "unit": "µg/mL"}, {"measurement": "drug resistance profile", "setting": "[11]", "value": "improved drug resistance profile"}]}, {"compound": "CC1COc2c(N3CCN(C)CC3)c(F)cc3c(=O)c(C(=O)O)cn1c23", "note": "(stereo not shown) [ofloxacin]", "values": [{"measurement": "MIC", "setting": "[7]", "value": 8, "unit": "µg/mL"}, {"measurement": "increase of MIC", "setting": "[7]; after 5 passages", "value": 4, "unit": "fold"}, {"measurement": "increase of MIC", "setting": "[7]; at 35 passages", "value": 32, "unit": "fold"}, {"measurement": "increase of MIC", "setting": "[7]; [12]", "value": 64, "unit": "fold"}]}, {"compound": "CN[C@H](CC(C)C)C(=O)N[C@H]1C(=O)N[C@@H](CC(N)=O)C(=O)N[C@H]2C(=O)N[C@H]3C(=O)N[C@H](C(=O)N[C@H](C(=O)O)c4cc(O)cc(O)c4-c4cc3ccc4O)[C@H](O)c3ccc(c(Cl)c3)Oc3cc2cc(c3O[C@@H]2O[C@H](CO)[C@@H](O)[C@H](O)[C@H]2O[C@H]2C[C@](C)(N)[C@H](O)[C@H](C)O2)Oc2ccc(cc2Cl)[C@H]1O", "note": "[vancomycin]", "values": [{"measurement": "reduction of MRSA numbers (CFU) in the wound vs control", "setting": "[6]", "value": "~50", "unit": "%"}, {"measurement": "MIC", "setting": "[7]", "value": 1, "unit": "µg/mL"}, {"measurement": "increase of MIC", "setting": "[7]; [12]", "value": 128, "unit": "fold"}, {"measurement": "increase of MIC", "setting": "[7]; by 51 passages", "value": 4, "unit": "fold"}, {"measurement": "MIC", "setting": "[8]; Staphylococcus aureus", "value": "~1", "unit": "µg/mL"}]}, {"compound": "CCCCCCCCCC(=O)N[C@@H](Cc1c[nH]c2ccccc12)C(=O)N[C@H](CC(N)=O)C(=O)N[C@@H](CC(=O)O)C(=O)N[C@@H]1C(=O)NCC(=O)N[C@@H](CCCN)C(=O)N[C@@H](CC(=O)O)C(=O)N[C@H](C)C(=O)N[C@@H](CC(=O)O)C(=O)NCC(=O)N[C@H](CO)C(=O)N[C@@H]([C@H](C)CC(=O)O)C(=O)N[C@@H](CC(=O)c2ccccc2N)C(=O)O[C@@H]1C", "note": "[daptomycin]", "values": [{"measurement": "MIC", "setting": "[8]; MRSA ATCC BAA-44 and ATCC BAA-1717, broth microdilution", "value": "~1", "unit": "µg/mL"}]}]}
